The supplement of paper PMC11208160

Experiment: recombinant barcode read abundance after kanamycin selection (control-corrected) (log10(CPM+1)); higher = more efficient recombination; sequences stand for … in AGTGCAGAGAAAATCGGCCAGTTTTCTCTGCCTGCAGTCCGCATGCCGT…AGATTTATGCAGCGGACTGCCTTTCTCCCAAAGTGATAAACCGGACAGTATCATGGACCGGTTTTCCCGGTAATCCGTATTTGCAAGGTTGGTTTCACT; site = the 11-nt target
How it was run: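 The screen was pooled in E. coli and paired targets with IS621 bridge RNA target-binding loops. Recombination efficiency is taken from barcode counts per million at recombinant junctions, averaged and adjusted against the control. Values, in the form log10(CPM+1), come from duplicate plating on chloramphenicol/ampicillin LB agar or on chloramphenicol/ampicillin/kanamycin with 0.1 mM IPTG.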
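Further: IS621 recombinase and bridge RNA in Escherichia coli cells.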

Sequence | recombinant barcode read abundance (log10)
TATCGGCCTTGGGTTCTAACCTGTTGCCT (site TAGCGGCCTAG) | 0.0857
TATCGGCCTTGGGTTCTAACCTGTTGCCT (site TATCGGCCTAG) | 0.0996
TATGCGCCTTGGGTTCTAACCTGTTGCCT (site CATGTGCCTAG) | 0.149
TATGCGCCTTGGGTTCTAACCTGTTGCCT (site TATGCGCCTAG) | 0.327
TATGGGGCTTGGGTTCTAACCTGTTGCCT (site TATGAGGCTAG) | 0.145
TATGGGGCTTGGGTTCTAACCTGTTGCCT (site TATGCGGCTAG) | 0.0621
TATGGGGCTTGGGTTCTAACCTGTTGCCT (site TATGGGGCTAG) | 0.246
TATGGGGCTTGGGTTCTAACCTGTTGCCT (site TATGTGGCTAG) | 0.0518
TATGTACCTTGGGTTCTAACCTGTTGCCT (site AATGTACCTAG) | 0.052
TATGTACCTTGGGTTCTAACCTGTTGCCT (site CATGTACCTAG) | 0.234
TATGTACCTTGGGTTCTAACCTGTTGCCT (site GATGTACCTAG) | 0.101
TATGTACCTTGGGTTCTAACCTGTTGCCT (site TATGTACCTAG) | 1.46
TATGTAGCTTGGGTTCTAACCTGTTGCCA (site TATGTAGCTAG) | 0.22
TATGTAGCTTGGGTTCTAACCTGTTGCCA (site TATGTAGCTCG) | 0.0344
TATGTAGCTTGGGTTCTAACCTGTTGCCA (site TATGTAGCTGG) | 0.201
TATGTAGCTTGGGTTCTAACCTGTTGCCA (site TATGTAGCTTG) | 1.05
TATGTGGCTTGGGTTCTAACCTGTTGCCT (site TATGAGGCTAG) | 0.551
TATGTGGCTTGGGTTCTAACCTGTTGCCT (site TATGCGGCTAG) | 0.296
TATGTGGCTTGGGTTCTAACCTGTTGCCT (site TATGGGGCTAG) | 0.0271
TATGTGGCTTGGGTTCTAACCTGTTGCCT (site TATGTGGCTAG) | 0.179
TATGTGTCTTGGGTTCTAACCTGTTGCCT (site TAAGTGTCTAG) | 1.67
TATGTGTCTTGGGTTCTAACCTGTTGCCT (site TACGTGTCTAG) | 0.509

Sequence | recombinant barcode read abundance (log10)
TATGTGTCTTGGGTTCTAACCTGTTGCCT (site TAGGTGTCTAG) | 0.0112
TATGTGTCTTGGGTTCTAACCTGTTGCCT (site TATGTGTCTAG) | 2.01
TATTACCCTTGGGTTCTAACCTGTTGCCT (site TATTAACCTAG) | 0.035
TATTACCCTTGGGTTCTAACCTGTTGCCT (site TATTACCCTAG) | 0.739
TATTACCCTTGGGTTCTAACCTGTTGCCT (site TATTAGCCTAG) | 0.0773
TATTACCCTTGGGTTCTAACCTGTTGCCT (site TATTATCCTAG) | 0.12
TATTCTACTTGGGTTCTAACCTGTTGCGG (site TATTCTACTAC) | 0.0937
TATTCTACTTGGGTTCTAACCTGTTGCGG (site TATTCTACTCC) | 0.223
TATTCTACTTGGGTTCTAACCTGTTGCGG (site TATTCTACTGC) | 0.101
TATTCTACTTGGGTTCTAACCTGTTGCGG (site TATTCTACTTC) | 0.169
TATTGGCCTTGGGTTCTAACCTGTTGCGT (site ACGACTACTCG) | 0.0203
TATTGGCCTTGGGTTCTAACCTGTTGCGT (site TATTGGCCTAC) | 0.202
TATTTCTCTTGGGTTCTAACCTGTTGCCT (site AATTTCTCTAG) | 0.0527
TATTTCTCTTGGGTTCTAACCTGTTGCCT (site CATTTCTCTAG) | 0.0799
TATTTCTCTTGGGTTCTAACCTGTTGCCT (site GATTTCTCTAG) | 0.0942
TATTTCTCTTGGGTTCTAACCTGTTGCCT (site TATTTCTCTAG) | 0.157
TATTTGCCTTGGGTTCTAACCTGTTGCTG (site GCACCTGCTAG) | 0.183
TATTTGCCTTGGGTTCTAACCTGTTGCTG (site TATTTGCCTCA) | 0.0916
TCAAAGCCTTGGGTTCTAACCTGTTGCTG (site TCAAAGCCTCA) | 0.252
TCAAAGCCTTGGGTTCTAACCTGTTGCTG (site TCACAGCCTCA) | 0.204
TCAAAGCCTTGGGTTCTAACCTGTTGCTG (site TCAGAGCCTCA) | 0.372
TCAAAGCCTTGGGTTCTAACCTGTTGCTG (site TCATAGCCTCA) | 0.217

Sequence | recombinant barcode read abundance (log10)
TCAAGACCTTGGGTTCTAACCTGTTGCCT (site TCAAGACCTAG) | 0.617
TCAAGACCTTGGGTTCTAACCTGTTGCCT (site TCAAGACCTCG) | 0.0935
TCACAGCCTTGGGTTCTAACCTGTTGCTG (site TCAAAGCCTCA) | 0.106
TCACAGCCTTGGGTTCTAACCTGTTGCTG (site TCACAGCCTCA) | 0.476
TCACAGCCTTGGGTTCTAACCTGTTGCTG (site TCAGAGCCTCA) | 0.176
TCACAGCCTTGGGTTCTAACCTGTTGCTG (site TCATAGCCTCA) | 0.178
TCACAGTCTTGGGTTCTAACCTGTTGCCT (site TAACACTCTAG) | 0.0324
TCACAGTCTTGGGTTCTAACCTGTTGCCT (site TCACAGTCTAG) | 1.59
TCACATGCTTGGGTTCTAACCTGTTGCCT (site TCACATGCTAG) | 1.28
TCACATGCTTGGGTTCTAACCTGTTGCCT (site TCACCTGCTAG) | 0.0279
TCACATGCTTGGGTTCTAACCTGTTGCCT (site TCACGTGCTAG) | 0.179
TCACATGCTTGGGTTCTAACCTGTTGCCT (site TCACTTGCTAG) | 0.119
TCACATTCTTGGGTTCTAACCTGTTGCCT (site TCAAATTCTAG) | 0.228
TCACATTCTTGGGTTCTAACCTGTTGCCT (site TCACATTCTAG) | 0.31
TCACATTCTTGGGTTCTAACCTGTTGCCT (site TCAGATTCTAG) | 0.183
TCACATTCTTGGGTTCTAACCTGTTGCCT (site TCATATTCTAG) | 0.155
TCAGAGCCTTGGGTTCTAACCTGTTGCTG (site TCAAAGCCTCA) | 0.025
TCAGAGCCTTGGGTTCTAACCTGTTGCTG (site TCACAGCCTCA) | 0.0728
TCAGAGCCTTGGGTTCTAACCTGTTGCTG (site TCAGAGCCTCA) | 1.28
TCAGAGCCTTGGGTTCTAACCTGTTGCTG (site TCATAGCCTCA) | 0.0059
TCAGGAGCTTGGGTTCTAACCTGTTGCAG (site TCAGGAGCTCC) | 0.0921
TCAGGAGCTTGGGTTCTAACCTGTTGCAG (site TCAGGAGCTCT) | 1.57

Sequence | recombinant barcode read abundance (log10)
TCATTGACTTGGGTTCTAACCTGTTGCCT (site TCATTGACTAG) | 0.622
TCATTGACTTGGGTTCTAACCTGTTGCCT (site TTATTCACTAG) | 0.0739
TCCAAATCTTGGGTTCTAACCTGTTGCCT (site AGACTGACTCC) | 0.109
TCCAAATCTTGGGTTCTAACCTGTTGCCT (site TCCAAATCTAG) | 0.317
TCCAACCCTTGGGTTCTAACCTGTTGCAG (site TCCAAACCTCT) | 0.066
TCCAACCCTTGGGTTCTAACCTGTTGCAG (site TCCAACCCTCT) | 1.69
TCCAACCCTTGGGTTCTAACCTGTTGCAG (site TCCAAGCCTCT) | 0.0523
TCCAACCCTTGGGTTCTAACCTGTTGCAG (site TCCAATCCTCT) | 0.0309
TCCAACCCTTGGGTTCTAACCTGTTGCTG (site GCCAAGCCTCA) | 0.0799
TCCAACCCTTGGGTTCTAACCTGTTGCTG (site TCCAACCCTCA) | 1.65
TCCAACCCTTGGGTTCTAACCTGTTGCTT (site CAGGGGACTGT) | 0.0296
TCCAACCCTTGGGTTCTAACCTGTTGCTT (site TCCAACCCTAA) | 0.391
TCCAACTCTTGGGTTCTAACCTGTTGCAC (site CATCCTACTAG) | 0.0443
TCCAACTCTTGGGTTCTAACCTGTTGCAC (site TCCAACTCTGT) | 0.903
TCCAAGGCTTGGGTTCTAACCTGTTGCTA (site CTGCGTACTCG) | 0.0788
TCCAAGGCTTGGGTTCTAACCTGTTGCTA (site TCCAAGGCTTA) | 0.275
TCCAATACTTGGGTTCTAACCTGTTGCCG (site TCCAACACTCG) | 0.0602
TCCAATACTTGGGTTCTAACCTGTTGCCG (site TCCAATACTCG) | 0.269
TCCAGCTCTTGGGTTCTAACCTGTTGCCT (site ACCAGATCTAG) | 0.0273
TCCAGCTCTTGGGTTCTAACCTGTTGCCT (site TCCAGCTCTAG) | 0.631
